Laboratory results: ChEMBL document CHEMBL1127557, “Novel potassium-channel openers: preparation and pharmacological evaluation of racemic and optically active N-(6-amino-3-pyridyl)-N'-bicycloalkyl-N"-cyanoguanidine derivatives” (J Med Chem, 1994)

Columns and labels:
Rattus norvegicus [1] = assay: Compound was tested for hypotensive activity in anesthetized normotensive rats by intravenous injection. Systolic blood pressure measured 30 min after injection; format: functional
Rattus norvegicus [2] = organism: Rattus norvegicus; assay: Compound was tested for vasorelaxant activity on the basis of ability to relax endothelium-denuded rat aortic strips toned with 20 mM KCl; format: functional, Aorta
[3] = Ratio between Na+ and K+ excretion values at a dose of 5 mg/kg; format: ADME, organism-based; design: dose 5 mg/kg; conditions: in vivo
Rattus norvegicus [4] = organism: Rattus norvegicus; assay: Compound was tested for oral diuretic effect on spontaneously hypertensive rats by measuring the potassium excretion at vehicle concentration; format: ADME, organism-based, Urine; conditions: in vivo
Rattus norvegicus [5] = assay: Compound was tested for oral diuretic effect on spontaneously hypertensive rats by measuring the potassium excretion at 1 mg/kg concentration; format: ADME, organism-based, Urine; design: dose 1 mg/kg, route oral; conditions: in vivo
Rattus norvegicus [6] = organism: Rattus norvegicus; assay: Compound was tested for oral diuretic effect on spontaneously hypertensive rats by measuring the urinary volume at vehicle concentration; format: functional, Urine
[7] = Ratio between Na+ and K+ excretion values at a dose of 1 mg/kg; format: ADME, organism-based; design: dose 1 mg/kg; conditions: in vivo
Rattus norvegicus [8] = assay: Compound was tested for oral diuretic effect on spontaneously hypertensive rats by measuring the excretion of sodium at 1 mg/kg concentration; format: ADME, organism-based, Urine; design: dose 1 mg/kg, route oral; conditions: in vivo
Rattus norvegicus [9] = assay: Compound was tested for oral diuretic effect on spontaneously hypertensive rats by measuring the potassium excretion at 5 mg/kg concentration; format: ADME, organism-based, Urine; design: dose 5 mg/kg, route oral; conditions: in vivo
Rattus norvegicus [10] = assay: Compound was tested for oral diuretic effect on spontaneously hypertensive rats by measuring the excretion of sodium at 5 mg/kg concentration.; format: ADME, organism-based, Urine; design: dose 5 mg/kg, route oral; conditions: in vivo
Rattus norvegicus [11] = organism: Rattus norvegicus; assay: Compound was tested for oral diuretic effect on spontaneously hypertensive rats by measuring the excretion of sodium at vehicle concentration; format: ADME, organism-based, Urine; conditions: in vivo
Rattus norvegicus [12] = assay: Compound was tested for oral diuretic effect on spontaneously hypertensive rats by measuring the urinary volume at 1 mg/kg concentration; format: functional, Urine
Rattus norvegicus [13] = assay: Compound was tested for oral diuretic effect on spontaneously hypertensive rats by measuring the urinary volume at 5 mg/kg concentration; format: functional, Urine
Rattus norvegicus [14] = assay: Compound was tested for hypotensive activity in anesthetized normotensive rats by intravenous injection, Systolic blood pressure measured 30 min after injection; format: functional; conditions: 0.5 h
Rattus norvegicus [15] = assay: Compound was tested for oral diuretic effect on spontaneously hypertensive rats by measuring the excretion of sodium at 5 mg/kg concentration; format: ADME, organism-based, Urine; design: dose 5 mg/kg, route oral; conditions: in vivo
[16] = Rattus norvegicus, Blood, iv, 0.5 h, read-out: ED30

Structure (SMILES)	IC50 (Rattus norvegicus [2]; Rattus norvegicus, Aorta)	IC50 (Rattus norvegicus [2])	Ratio [3]	K+ excretion (Rattus norvegicus [4])	K+ excretion (Rattus norvegicus [5])	Ratio [7]	Na+ excretion (Rattus norvegicus [8])	K+ excretion (Rattus norvegicus [9])	Na+ excretion (Rattus norvegicus [11])	ED30 (Rattus norvegicus [1]; [16])	Urinary volume (Rattus norvegicus [6])	Urinary volume (Rattus norvegicus [12])	Urinary volume (Rattus norvegicus [13])	also measured
Cl.N#CN/C(=N\C1CC2CCC1C2)Nc1ccc(N)nc1 (stereo not given)	593 nM	–	–	–	–	–	–	–	–	0.74 mg/kg	–	–	–	–
N#CN/C(=N\[C@H]1C[C@H]2CC[C@@H]1C2)Nc1ccc(N)nc1	–	90 nM	–	–	–	–	–	–	–	0.1 mg/kg	–	–	–	–
N#CN/C(=N\[C@@H]1C[C@H]2CC[C@@H]1C2)Nc1ccc(N)nc1 (stereo in doubt; (+)-9)	–	267 nM	–	–	–	–	–	–	–	–	–	–	–	ED30 (Rattus norvegicus [1]): 0.4 mg/kg
N#CN/C(=N\[C@@H]1C[C@H]2CC[C@@H]1C2)Nc1ccc(N)nc1 (stereo in doubt; (-)-9)	278 nM	–	–	–	–	–	–	–	–	0.57 mg/kg	–	–	–	–
CC1(C)Oc2ccc(C#N)cc2[C@@H](N2CCCC2=O)[C@@H]1O [CROMAKALIM]	110 nM	–	–	–	–	–	–	–	–	0.11 mg/kg	–	–	–	–
CC(N/C(=N\C#N)Nc1ccncc1)C(C)(C)C (stereo not given) [PINACIDIL ANHYDROUS]	380 nM	–	0.12	1.078 m equiv 5hr-1 kg-1	1.546 m equiv 5hr-1 kg-1	0.78	1.27 m equiv 5hr-1 kg-1	0.584 m equiv 5hr-1 kg-1	1.357 m equiv 5hr-1 kg-1	0.15 mg/kg	5.15 ml kg-1 5hr-1	7.62 ml kg-1 5hr-1	2.56 ml kg-1 5hr-1	Na+ excretion (Rattus norvegicus [15]): 0.078 m equiv 5hr-1 kg-1

Second part, led by results:

IC50 (Rattus norvegicus [2]; Rattus norvegicus, Aorta)	IC50 (Rattus norvegicus [2])	Ratio [3]	K+ excretion (Rattus norvegicus [4])	K+ excretion (Rattus norvegicus [5])	Ratio [7]	Na+ excretion (Rattus norvegicus [8])	K+ excretion (Rattus norvegicus [9])	Na+ excretion (Rattus norvegicus [11])	Structure (SMILES)	ED30 (Rattus norvegicus [1]; [16])	Urinary volume (Rattus norvegicus [6])	Urinary volume (Rattus norvegicus [12])	Urinary volume (Rattus norvegicus [13])	also measured
–	71 nM	–	–	–	–	–	–	–	C[C@]12CC[C@H](C[C@@H]1/N=C(\NC#N)Nc1ccc(N)nc1)C2.Cl	–	–	–	–	ED30 (Rattus norvegicus [1]): 0.28 mg/kg
118 nM	–	–	–	–	–	–	–	–	C[C@]12CC[C@H](C[C@@H]1/N=C(\NC#N)Nc1ccc(N)nc1)C2	0.18 mg/kg	–	–	–	–
–	–	0.5	1.078 m equiv 5hr-1 kg-1	1.35 m equiv 5hr-1 kg-1	1.08	1.523 m equiv 5hr-1 kg-1	1.249 m equiv 5hr-1 kg-1	1.357 m equiv 5hr-1 kg-1	Cl.N#CN/C(=N\[C@@H]1CC2CCC1C2)Nc1ccc(N)nc1 (mixture of isomers)	–	5.15 ml kg-1 5hr-1	8.77 ml kg-1 5hr-1	4.68 ml kg-1 5hr-1	Na+ excretion (Rattus norvegicus [10]): 0.694 m equiv 5hr-1 kg-1; ED30 (Rattus norvegicus [14]): 0.51 mg/kg
–	392 nM	1.27	0.8 m equiv 5hr-1 kg-1	0.646 m equiv 5hr-1 kg-1	1.54	0.89 m equiv 5hr-1 kg-1	1.46 m equiv 5hr-1 kg-1	1.072 m equiv 5hr-1 kg-1	Cl.N#CN/C(=N\[C@H]1C[C@H]2CC[C@@H]1C2)Nc1ccc(N)nc1 (racemic)	0.17 mg/kg	6.84 ml kg-1 5hr-1	5.53 ml kg-1 5hr-1	18.37 ml kg-1 5hr-1	Na+ excretion (Rattus norvegicus [15]): 1.865 m equiv 5hr-1 kg-1
–	79 nM	0.59	0.8 m equiv 5hr-1 kg-1	0.747 m equiv 5hr-1 kg-1	1.08	0.8 m equiv 5hr-1 kg-1	0.515 m equiv 5hr-1 kg-1	1.072 m equiv 5hr-1 kg-1	C[C@]12CC[C@H](C[C@@H]1/N=C(\NC#N)Nc1ccc(N)nc1)C2.Cl (racemic)	0.2 mg/kg	6.84 ml kg-1 5hr-1	6.92 ml kg-1 5hr-1	7.31 ml kg-1 5hr-1	Na+ excretion (Rattus norvegicus [15]): 0.311 m equiv 5hr-1 kg-1
